Holding throughout (assay): Kinase Assay
The target of assay [1] is Fibroblast growth factor receptor 2 (Homo sapiens, UniProt P21802). How it is done: (§1) Kinase-tagged T7 phage strains were prepared in an E. coli host derived from the BL21 strain. E. coli were grown to log-phase and infected with T7 phage and incubated with shaking at 32° C. until lysis. The lysates were centrifuged and filtered to remove cell debris. […] The liganded beads were blocked with excess biotin and washed with blocking buffer SeaBlock (Pierce), […], 1 mM DTT to remove unbound ligand and to reduce non-specific binding. […] Kds were determined using an 11-point 3-fold compound dilution series with three DMSO control points. […] The compounds were then diluted directly into the assays such that the final concentration of DMSO was 0.9%. All reactions performed in polypropylene 384-well plate. Each was a final volume of 0.02 ml.
Fibroblast growth factor receptor 2, sequence (P21802 whole entry): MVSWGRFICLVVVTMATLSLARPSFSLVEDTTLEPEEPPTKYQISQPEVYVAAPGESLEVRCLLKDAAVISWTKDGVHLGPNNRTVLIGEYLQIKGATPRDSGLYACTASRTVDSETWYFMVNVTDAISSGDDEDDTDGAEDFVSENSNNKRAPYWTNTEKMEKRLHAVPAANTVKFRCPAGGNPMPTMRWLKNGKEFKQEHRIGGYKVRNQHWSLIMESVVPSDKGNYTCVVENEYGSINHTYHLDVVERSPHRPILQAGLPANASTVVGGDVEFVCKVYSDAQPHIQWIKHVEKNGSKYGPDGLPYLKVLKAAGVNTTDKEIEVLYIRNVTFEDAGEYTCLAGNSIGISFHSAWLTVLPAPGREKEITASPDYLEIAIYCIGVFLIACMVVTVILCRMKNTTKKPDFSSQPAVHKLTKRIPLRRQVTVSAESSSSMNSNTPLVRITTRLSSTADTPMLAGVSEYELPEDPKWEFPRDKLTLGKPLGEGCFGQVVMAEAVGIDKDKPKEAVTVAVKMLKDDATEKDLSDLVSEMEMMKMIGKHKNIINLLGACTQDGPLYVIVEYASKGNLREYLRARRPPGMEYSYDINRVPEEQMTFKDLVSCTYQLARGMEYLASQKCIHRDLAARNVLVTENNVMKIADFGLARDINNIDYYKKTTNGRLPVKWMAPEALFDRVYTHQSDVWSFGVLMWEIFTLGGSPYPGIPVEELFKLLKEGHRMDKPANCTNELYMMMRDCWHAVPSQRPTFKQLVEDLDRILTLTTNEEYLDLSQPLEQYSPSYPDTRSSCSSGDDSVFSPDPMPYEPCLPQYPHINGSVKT

The target of assay [2] is Fibroblast growth factor receptor 4 (Homo sapiens, UniProt P22455). How it is done: as §1
Fibroblast growth factor receptor 4, sequence (P22455 whole entry): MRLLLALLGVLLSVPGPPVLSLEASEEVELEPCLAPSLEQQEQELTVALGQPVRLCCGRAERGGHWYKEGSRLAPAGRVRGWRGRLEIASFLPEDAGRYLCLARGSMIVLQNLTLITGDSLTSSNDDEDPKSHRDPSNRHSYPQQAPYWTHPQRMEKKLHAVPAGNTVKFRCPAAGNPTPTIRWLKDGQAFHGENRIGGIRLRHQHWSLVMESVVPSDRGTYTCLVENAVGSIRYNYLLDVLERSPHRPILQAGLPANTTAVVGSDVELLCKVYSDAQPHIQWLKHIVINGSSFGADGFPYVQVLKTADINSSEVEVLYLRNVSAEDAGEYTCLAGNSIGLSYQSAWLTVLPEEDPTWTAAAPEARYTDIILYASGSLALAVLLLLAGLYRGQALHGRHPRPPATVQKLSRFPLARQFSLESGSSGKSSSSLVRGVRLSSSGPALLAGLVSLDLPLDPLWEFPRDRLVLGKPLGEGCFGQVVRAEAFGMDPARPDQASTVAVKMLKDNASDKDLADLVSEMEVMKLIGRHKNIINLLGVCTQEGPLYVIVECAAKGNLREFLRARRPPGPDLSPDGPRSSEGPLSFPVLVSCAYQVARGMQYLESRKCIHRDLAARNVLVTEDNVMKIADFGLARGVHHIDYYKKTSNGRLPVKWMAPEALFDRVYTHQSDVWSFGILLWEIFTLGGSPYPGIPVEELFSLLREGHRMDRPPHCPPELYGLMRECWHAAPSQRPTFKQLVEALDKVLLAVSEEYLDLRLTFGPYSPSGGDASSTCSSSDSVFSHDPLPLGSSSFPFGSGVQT
Assay [3] concerns the target Fibroblast growth factor receptor 1 (Homo sapiens, UniProt P11362). How it is done:
as §1

Structures are written as SMILES.

Fibroblast growth factor receptor 1, sequence (P11362 whole entry): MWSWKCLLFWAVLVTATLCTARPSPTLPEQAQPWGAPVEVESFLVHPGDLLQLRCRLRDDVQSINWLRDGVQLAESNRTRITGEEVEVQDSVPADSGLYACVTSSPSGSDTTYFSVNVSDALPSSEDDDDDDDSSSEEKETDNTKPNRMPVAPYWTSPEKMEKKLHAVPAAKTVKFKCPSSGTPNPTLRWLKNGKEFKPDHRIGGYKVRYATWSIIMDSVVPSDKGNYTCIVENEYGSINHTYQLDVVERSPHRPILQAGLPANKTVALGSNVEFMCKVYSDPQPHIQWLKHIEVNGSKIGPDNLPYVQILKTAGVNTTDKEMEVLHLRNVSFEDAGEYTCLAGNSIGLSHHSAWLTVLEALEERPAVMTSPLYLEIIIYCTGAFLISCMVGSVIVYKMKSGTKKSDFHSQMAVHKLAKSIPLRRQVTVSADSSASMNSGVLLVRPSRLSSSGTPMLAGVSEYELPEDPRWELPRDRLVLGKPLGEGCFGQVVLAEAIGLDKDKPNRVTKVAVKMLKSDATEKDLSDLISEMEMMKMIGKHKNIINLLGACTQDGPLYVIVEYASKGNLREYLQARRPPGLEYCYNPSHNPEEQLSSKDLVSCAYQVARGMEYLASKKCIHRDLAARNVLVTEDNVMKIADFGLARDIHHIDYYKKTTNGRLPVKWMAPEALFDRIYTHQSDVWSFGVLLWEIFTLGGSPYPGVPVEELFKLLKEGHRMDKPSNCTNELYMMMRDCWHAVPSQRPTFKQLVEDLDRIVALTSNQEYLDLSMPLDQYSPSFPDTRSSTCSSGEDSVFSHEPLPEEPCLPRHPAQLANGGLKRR

As for `Cc1cnnc(C)c1[C@@H](C)Oc1ccc2[nH]nc(-c3cnc(N4CCCC4)c(C#N)c3)c2c1` [US20240109865, Example 173.], the dissociation constant Kd in assay [1] was > 300 nM.

In the case of `C[C@@H](Oc1ccc2[nH]nc(-c3ccc(N4CC5(CCOC5)C4)nc3)c2c1)c1c(Cl)cnnc1Cl` [US20240109865, Example 223.], the dissociation constant (Kd) in assay [2] and in assay [3] was > 300 nM each time.

A word on the Kd: it is a measure of binding affinity in units of concentration. A higher Kd goes with weaker binding.

The record behind these values is BindingDB's records for patent US20240109865 (Tyra Biosciences, 2024).
